What was measured:
Assay type in all cases: cell-based
[1] = tested on: ush 3′UTR; experiment: dual-luciferase 3′UTR reporter assay, pAC-ush; details: luciferase reporter with ush 3′UTR, drosophila S2 cell lines; average of at least two independent experiments
Method: (§1) In order to determine whether the target genes identified in Example 7 are in actuality targets of miR-8 and miR-200 family miRNAs, the inventors performed cloning. In other words, they inserted a luciferase gene into downstream of each target gene's 3′UTR containing the miRNA target sites. Specifically, in order to obtain cDNAs of respective target genes, from drosophila S2 cell lines or human Hela cell lines, total RNA was extracted by using RNeasy mini kit (QIAGEN, US). 1 μg of total RNA and 1 μl of Oligo-dT (Invitrogen, US) were charged with up to 50 μl of distilled water, and placed into SuperScript First-Strand Synthesis System (Invitrogen, US), followed by RT-PCR reaction. Through the reaction at 65° C. for 6 min, at 4° C. for 5 min, at 42° C. for 60 min, at 95° C. for 5 min, and at 4° C. for 5 min, cDNA was synthesized. […]
(§2) Reporter plasmids and renilla luciferase expression vectors (Promega, US), as noted in Table 4, and miRNAs of miR-200 family of miR-141, miR-200a (hsa-miR-200a, SEQ ID: 87: 5′-[…]-3′), miR-200b, miR-200c (has-miR-200c, SEQ ID: 88: 5′-[…]-3′) and miR-429, and miR-8 (dme-miR-8, SEQ ID: 89: 5′-[…]-3′) were bought from Samchonri and cotransfected into drosophila S2 cell lines or human Hela cell lines. Then, the activities of luciferase were measured through dual-luciferase assay (Promega, US) by a luminometer (Biorad). […]

[2] = tested on: Lap1 3′UTR; experiment: dual-luciferase 3′UTR reporter assay, pAC-Lap1; details: luciferase reporter with Lap1 3′UTR, drosophila S2 cell lines; average of at least two independent experiments
Method: as §1, §2

[3] = tested on: CG8445 3′UTR; experiment: dual-luciferase 3′UTR reporter assay, pAC-CG8445; details: luciferase reporter with CG8445 3′UTR, drosophila S2 cell lines; average of at least two independent experiments
Method: as §1, §2

[4] = tested on: dbo 3′UTR; experiment: dual-luciferase 3′UTR reporter assay, pAC-dbo; details: luciferase reporter with dbo 3′UTR, drosophila S2 cell lines; average of at least two independent experiments
Method: as §1, §2

[5] = tested on: Lar 3′UTR; experiment: dual-luciferase 3′UTR reporter assay, pAC-Lar; details: luciferase reporter with Lar 3′UTR, drosophila S2 cell lines; average of at least two independent experiments
Method: as §1, §2

[6] = tested on: Ced-12 3′UTR; experiment: dual-luciferase 3′UTR reporter assay, pAC-Ced-12; details: luciferase reporter with Ced-12 3′UTR, drosophila S2 cell lines; average of at least two independent experiments
Method: as §1, §2

[7] = tested on: CG12333 3′UTR; experiment: dual-luciferase 3′UTR reporter assay, pAC-CG12333; details: luciferase reporter with CG12333 3′UTR, drosophila S2 cell lines; average of at least two independent experiments
Method: as §1, §2

[8] = tested on: ebf 3′UTR; experiment: dual-luciferase 3′UTR reporter assay, ebf; details: luciferase reporter with ebf 3′UTR, drosophila S2 cell lines; average of at least two independent experiments
Method: as §1, §2

## 5′-UAAUACUGUCAGGUAAAGAUGUC-3′ (listed as RNA, chemistry not given here) [miR-8]
[1]
  Repression fold, ush: 0.71 fold
[2]
  Repression fold, Lap1: 0.46 fold
[3]
  Repression fold, CG8445: 0.43 fold
[4]
  Repression fold, dbo: 0.54 fold
[5]
  Repression fold, Lar: 0.42 fold
[6]
  Repression fold, Ced-12: 0.51 fold
[7]
  Repression fold, CG12333: 0.59 fold
[8]
  Repression fold, ebf: 0.75 fold

From US20130011845A1, “MICRORNA REGULATING THE INSULIN SIGNALING PATHWAY, AND METHOD FOR SCREENING MATERIAL FOR CONTROLLING THE ACTION OF A TARGET THEREOF” (SNU R & DB Foundation, priority 2009, published 2013)
